Several values for one entry are separate records, joined by “and”; a condition that tells them apart may be missing. Equal entries are not always repeated. Values belong to the compound of their own block, whether it stands above or below them.
Columns and labels:
COX2 = test: SphK1-mediated COX2 acetylation with [14C] acetyl-CoA (ATP competition, SphK1 mutants; Supplementary Fig 1h,i); type: biochemical, human; settings: COX2 +
Text: Single point mutations in SphK1 (R56A, R57A, R24A, R185A, D178A, and F192A) and COX2 (S565A, N181A, T564A, and S567A) were generated using the In-Fusion Cloning Kits (Clontech) and ORF cDNA expression plasmids of human SphK1 and COX2 gene (Sino Biological Inc, HG15679-NH and HG12036-NH), according to the manufacturer’s instructions. The forward and reverse primers described in Supplementary Table 4. The SphK1 WT, SphK1 mutants, COX2 WT, and COX2 mutant plasmids were transformed in the One shot TOP 10 competent cell (Invitrogen). The bacteria were grown in Luria-Bertani (LB, Invitrogen) plates supplemented with 50 μg ml^−1 kanamycin (Sigma-Aldrich) at 37 °C. The bacterial cell pellets were resuspended in lysis buffer containing 20 mM sodium phosphate (GE Healthcare), 500 mM NaCl (GE Healthcare), 20 mM imidazole (pH 7.4) (GE Healthcare), 0.2 mg ml^−1 lysozyme (Sigma-Aldrich), 20 μg ml^−1 DNase I (Roche), 1 mM MgCl2 (Sigma-Aldrich), and 1 mM PMSF (Sigma-Aldrich) before being lysed by sonication and clarified by centrifugation at 15,493×g for 10 min. Proteins were purified from the soluble fraction using His-Spin Trap columns (GE Healthcare) and the binding and acetylation assays were performed.
Acetylation assays were performed according to previously described procedures with minor modifications. […] N-AS (2 μCi, ARC UK Ltd, ARC-1024) at 37 °C for 2 h. [^14C] aspirin (2 μCi, ARC UK Ltd, ARC-0473) was conducted as the positive control. The reactions were terminated by placing the reaction tubes in ice for 5 min. To evaluate in vivo neuronal and microglial COX2 acetylation, 10 μCi [^14C] N-AS was orally administrated to 9-months-old WT and APP/PS1 mice. After 1 h, neuron and microglia were isolated and sonicated in culture media. To immunoprecipitate acetylated COX2, the sample was incubated with COX2 antibody (Abcam, ab15191) at 4 °C for 24 h and precipitated by adding 50 μl of protein-A sepharose (GE Healthcare). Acetylated COX2 proteins bound to the beads were analyzed using a Tri-Carb 3110TR liquid scintillation counter (Perkin-Elmer).

COX2 WT = target: T1, COX2 WT (Homo sapiens, UniProt P35354); test: filter binding assay of [14C] N-AS to COX2; settings: COX2 Control; 0.2 uM (20 pmol); replicates
T1 construct: His (N); made in house
T1 sequence (P35354 18-604): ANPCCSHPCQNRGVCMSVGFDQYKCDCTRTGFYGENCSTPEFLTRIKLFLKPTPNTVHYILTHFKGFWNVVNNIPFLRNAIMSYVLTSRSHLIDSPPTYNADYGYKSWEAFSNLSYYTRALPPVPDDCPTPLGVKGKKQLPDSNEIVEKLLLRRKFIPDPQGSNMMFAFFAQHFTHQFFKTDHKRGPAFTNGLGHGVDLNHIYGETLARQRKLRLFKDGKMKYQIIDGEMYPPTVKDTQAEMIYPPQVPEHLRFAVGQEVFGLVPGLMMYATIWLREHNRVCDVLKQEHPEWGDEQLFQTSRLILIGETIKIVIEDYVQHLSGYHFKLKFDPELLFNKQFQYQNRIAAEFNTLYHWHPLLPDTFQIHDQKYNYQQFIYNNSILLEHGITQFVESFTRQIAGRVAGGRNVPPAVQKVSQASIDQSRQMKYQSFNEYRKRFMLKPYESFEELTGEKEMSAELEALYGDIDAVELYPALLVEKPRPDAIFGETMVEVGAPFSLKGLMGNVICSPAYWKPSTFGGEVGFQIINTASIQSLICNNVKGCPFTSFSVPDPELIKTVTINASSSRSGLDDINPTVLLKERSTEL

single-dose plasma PK = type: in vivo, C57BL/6 mice; settings: mouse; for AUC(0-inf): read-out: AUCinf (Plasma); for AUC(0-t): read-out: AUClast (Plasma)
Protocol: (§1) C57BL/6 mice were administered N-AS (Sigma-Aldrich, 01912) at doses of 1 mg kg^−1 (i.v.) or 10 mg kg^−1 (p.o.). Venous blood samples were collected at 5, 15, and 30 min, and 1, 2, 4, 8, and 24 h postdose. A 30 μl of plasma was separated from whole blood by centrifugation and stored at −80 °C until analysis. Also, brain samples were collected at 1, 2, 4, and 24 h postdose and heart, liver, and kidney samples were collected at 24 h postdose, thoroughly rinsed with physiological saline and weighed. Twenty percentage of tissue homogenates were prepared by homogenizing the tissue samples with four volumes of saline. A 30 μl aliquot of plasma or a 50 μl aliquot of tissue homogenates were deproteinized by addition of 200 μl cold methanol (containing naringenin as internal standard at 20 ng ml^−1) and centrifuged at 15,974×g for 10 min. A 10 μl aliquot of the supernatant was injected into Agilent 6470 LC-MS/MS system. Separation was performed on a Synergy Polar RP column (4 μm particle size, 2.0 mm ×150 mm, Phenomenex) using a mobile phase that consisted of methanol and water (85:15, v/v) with 0.1% formic acid at a flow rate of 0.2 ml min^−1. Quantification was carried out using multiple reaction monitoring (MRM) at m/z 340.3→263.3 for N-AS and m/z 271.1→151.3 for naringenin (internal standard) in negative ionization mode and collision energy of 20 eV. p, and relative oral BA values were calculated as follows: BA% = AUCp.o. normalized by p.o. dose/AUCi.v. normalized by i.v. dose × 100.

[1] = single-dose brain PK and brain distribution; type: in vivo, C57BL/6 mice; settings: mouse; for Kp / MRT / half-life / AUC(0-inf) / AUC(0-t): C57BL/6, brain; for AUC(0-inf): read-out: AUCinf (Brain); for AUC(0-t): read-out: AUClast (Brain)
Protocol: as §1

[2] = C57BL/6, plasma, iv, i.v. 1 mg/kg
[3] = C57BL/6, plasma, po, p.o. 10 mg/kg

Compound: CC(=O)SCCNC(=O)CCNC(=O)[C@H](O)C(C)(C)COP(=O)(O)OP(=O)(O)OC[C@H]1O[C@@H](n2cnc3c(N)ncnc32)[C@H](O)[C@@H]1OP(=O)(O)O [Acetyl-CoA, acetyl-CoA]
COX2 acetylation with C14 Acetyl CoA (sFig 1i) (COX2; Acetyl transfer: SphK1, Sph, ATP, listed as C14 Acetyl CoA): 10456 and 10500 and 10758 and 10726 | COX2 acetylation with C14 Acetyl CoA (sFig 1i) (COX2; Acetyl transfer: SphK1, Sph, listed as C14 Acetyl CoA): 19270 and 24354 and 19216 and 24474 and 19218 and 24370 | COX2 acetylation with C14 Acetyl CoA (sFig 1i) (COX2; Acetyl transfer: SphK1, listed as C14 Acetyl CoA): 11878 and 13132 and 13238 and 13414 and 13230 | COX2 acetylation with C14 Acetyl CoA (sFig 1i) (COX2; Acetyl transfer: SphK1 R24A, Sph, listed as C14 Acetyl CoA): 12532 and 11618 and 11452 and 12034 and 12526 and 12014 | COX2 acetylation with C14 Acetyl CoA (sFig 1i) (COX2; Acetyl transfer: SphK1 R56A, Sph, listed as C14 Acetyl CoA): 9992 and 10060 and 9758 and 9780 and 9270 and 10086 | COX2 acetylation with C14 Acetyl CoA (sFig 1i) (COX2; Acetyl transfer: SphK1 R57A, Sph, listed as C14 Acetyl CoA): 14380 and 14360 and 14338 and 14310 and 14334 and 14376 | COX2 acetylation with C14 Acetyl CoA (sFig 1i) (COX2; Acetyl transfer: SphK1 R185A, Sph, listed as C14 Acetyl CoA): 10222 and 9944 and 10214 and 10110 and 9988 | COX2 acetylation with C14 Acetyl CoA (sFig 1i) (COX2; C14 Acetyl CoA +, Acetyl transfer -): 2366 and 2614 and 2946 and 2710 and 2880 and 2156

MRT (single-dose plasma PK; [2]): 2.27 ± 0.11 h | half-life (single-dose plasma PK; [2]): 3.45 ± 0.16 h | AUC(0-inf) (single-dose plasma PK; [2]): 667 ± 28.8 ng·h/mL | AUC(0-t) (single-dose plasma PK; [2]): 665 ± 28.6 ng·h/mL | bioavailability (single-dose plasma PK; C57BL/6, plasma, oral, p.o. 10 mg/kg vs i.v. 1 mg/kg, read-out: BA (Bioavailability)): 8.25% | Cmax (single-dose plasma PK; [3]): 683 ± 141 ng/mL | MRT (single-dose plasma PK; [3]): 3.1 ± 0.14 h | Tmax (single-dose plasma PK; [3]): 0.25 h | half-life (single-dose plasma PK; [3]): 3.68 ± 0.14 h | AUC(0-inf) (single-dose plasma PK; [3]): 550 ± 71.3 ng·h/mL | AUC(0-t) (single-dose plasma PK; [3]): 545 ± 72.1 ng·h/mL | Co (Plasma) (single-dose plasma PK; i.v. 1 mg/kg): 854.36 ± 128.60 ng/mL | bioavailability (BA), in words (single-dose plasma PK; p.o.): low | Kp ([1]; iv, i.v. 1 mg/kg): 2.16 | MRT ([1]; iv, i.v. 1 mg/kg): 6.94 ± 0.62 h | half-life ([1]; iv, i.v. 1 mg/kg): 6.31 ± 0.38 h | AUC(0-inf) ([1]; iv, i.v. 1 mg/kg): 1440 ± 228 ng·h/mL | AUC(0-t) ([1]; iv, i.v. 1 mg/kg): 1340 ± 224 ng·h/mL | Kp ([1]; po, p.o. 10 mg/kg): 3.18 | MRT ([1]; po, p.o. 10 mg/kg): 8.64 ± 1.01 h | half-life ([1]; po, p.o. 10 mg/kg): 22 ± 6.07 h | AUC(0-inf) ([1]; po, p.o. 10 mg/kg): 1750 ± 362 ng·h/mL | AUC(0-t) ([1]; po, p.o. 10 mg/kg): 895 ± 60.5 ng·h/mL | Cmax (Brain) ([1]; i.v. 1 mg/kg): 165.18 ± 18.42 ng/mL | Cmax (Brain) ([1]; p.o. 10 mg/kg): 90.27 ± 2.95 ng/mL
Compound: CCCCCCCCCCCCC/C=C/[C@@H](O)[C@H](CO)NC(C)=O [N-AS, N-((2S,3R,E)-1,3-Dihydroxyoctadec-4-en-2-yl)acetamide]
binding velocity (Vbinding) (COX2 WT): 0.350 nM/min and 0.395 nM/min and 0.289 nM/min

Reference: paper PMC7217877, “N-AS-triggered SPMs are direct regulators of microglia in a model of Alzheimer’s disease” (Nature Communications, 2020)
